Measured values as given in US4371523A, “Reducing the aggregation of insulin in solution” (The Regents of the University of California, priority 1980, dated 1983).
“Also recorded” adds a separate entry of the source.

Columns and labels:
[1] = target: T1, single component neutral pork zinc insulin (Sus scrofa, UniProt P01315); assay: Controlled shaking of zinc insulin solutions in test tubes, optical density at 600 nm; format: physicochemical; details: for Protective effect against insulin aggregation (in words): agent added to insulin solution at acid pH 3.3-3.5; for Optical Density ± 1 × SE: zinc insulin 50 U/ml, OD at 600 nm
T1 construct: single component, neutral, pork, zinc-insulin (U.500 regular Iletin II., Eli Lilly & Company); purchased Eli Lilly & Company U.500 regular Iletin II
Protocol: In vitro testing of single component neutral pork zinc insulin was undertaken with a number of added agents. Solutions at about neutral pH and at acid pH were tested. In addition, some testing was also undertaken with Na insulin.
The tests were conducted using plastic tybes (5 ml test tubes, Sarstedt, sealed by plastic caps covered with paraffin) each containing 2 ml of the insulin solutions noted below. The tubes were continuously agitated in a metabolic shaking incubator (Dubnoff E.C.A. Co.) at 60 to 80 r.p.m. and 37° C. for periods up to sixteen days.
The zinc insulin solutions were prepared by appropriate dilutions of highly concentrated (500 U/ml) single component, neutral, pork, zinc-insulin (U.500 regular Iletin II., Eli Lilly & Company). The unbuffered diluting fluid contained glycerin, 16 mg/ml, and phenol, 2 mg/ml of distilled water (Eli Lilly & Company). […] Final insulin concentration in all solutions was 50 U/ml (2 mg/ml).
Insulin solutions with amino acid added were prepared by addition of the dry amino acids (Sigma Company) to the neutral zinc or sodium insulin solutions. Final concentration of the amino acid additives was 7 mg per ml of insulin solution. pH was adjusted, when necessary, to 7.5 for neutral insulin mixtures and to 3.3-3.5 for acid insulin mixtures.
Several non-amino carboxylic acids, i.e., lactic acid, acetic acid, and citric acid, were added under the same conditions of concentration and pH as described for the amino acids.
The various insulin solutions, both as made up without additives and with additives, were shaken as noted above for up to sixteen days, at which time the solutions were examined with an optical densitometer at a wave length 600 nm. The optical density (OD) of each solution was an indication of the amount of aggregation present after the shaking period. The higher the optical density, the greater the aggregation in that solution.

[2] = system: insulin; details: supplemental material added to insulin solution; cited from earlier work
[3] = pH 3.3-3.5, shaken 16 days at 37° C.
[4] = pH 7.4, shaken 16 days at 37° C., higher OD = greater aggregation

T1 sequence (P01315 25-54 limits assumed): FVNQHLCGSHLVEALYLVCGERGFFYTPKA
T1 sequence (P01315 88-108 limits assumed): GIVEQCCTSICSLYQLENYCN

## CC(=O)O [Acetic Acid]
[1]
  Protective effect against insulin aggregation (in words): do not prevent aggregation; also recorded: a comparable protective effect was not noted
[1]; listed as acetate
  Protective effect against insulin aggregation (in words): exacerbate aggregation

## C[C@H](N)C(=O)O [Alanine]
[1]
  Protective effect against insulin aggregation (in words): no protective effect was noted
[1]; [3]
  Optical Density ± 1 × SE: 0.41 ± 0.02
[1]; [4]
  Optical Density ± 1 × SE: 0.84 ± 0.04

## N=C(N)NCCC[C@H](N)C(=O)O [Arginine]
[1]
  Protective effect against insulin aggregation (in words): no protective effect was noted
[1]; [4]
  Optical Density ± 1 × SE: 0.074 ± 0.03
[1]; zinc insulin, pH 7.4, 16 days
  Observation of the solution after shaking: Gel formed

## NC(=O)C[C@H](N)C(=O)O [Asparagine]
[1]
  Protective effect against insulin aggregation (in words): no protective effect was noted
[1]; [4]
  Optical Density ± 1 × SE: 0.87 ± 0.13

## O=C(O)CC(O)(CC(=O)O)C(=O)O [Citric Acid]
[1]
  Protective effect against insulin aggregation (in words): do not prevent aggregation; also recorded: a comparable protective effect was not noted
[1]; listed as citrate
  Protective effect against insulin aggregation (in words): exacerbate aggregation

## N[C@@H](CS)C(=O)O [Cysteine]
[1]; [3]
  Optical Density ± 1 × SE: 0.39 ± 0.08
[1]; [4]
  Optical Density ± 1 × SE: 0.34 ± 0.13
[2]
  Effect in preventing the aggregation of insulin in solution over extended periods of time: do not appear to have any appreciable effect

## NC(=O)CC[C@H](N)C(=O)O [Glutamine]
[1]
  Protective effect against insulin aggregation (in words): no protective effect was noted
[1]; [4]
  Optical Density ± 1 × SE: 0.68 ± 0.03

## CC(O)C(=O)O (stereo not shown) [Lactic Acid]
[1]
  Protective effect against insulin aggregation (in words): do not prevent aggregation; also recorded: a comparable protective effect was not noted
[1]; listed as lactate
  Protective effect against insulin aggregation (in words): exacerbate aggregation

## CC(C)C[C@H](N)C(=O)O [Leucine]
[1]
  Protective effect against insulin aggregation (in words): no protective effect was noted
[1]; [4]
  Optical Density ± 1 × SE: 0.695 ± 0.03

## NCCCC[C@H](N)C(=O)O [Lysine]
[1]
  Protective effect against insulin aggregation (in words): no protective effect was noted
[1]; [3]
  Optical Density ± 1 × SE: 0.35 ± 0.13
[1]; [4]
  Optical Density ± 1 × SE: 0.25 ± 0.08

## CSCC[C@H](N)C(=O)O [Methionine]
[1]
  Protective effect against insulin aggregation (in words): no protective effect was noted
[1]; [4]
  Optical Density ± 1 × SE: 0.74 ± 0.22

## O=C(O)[C@@H]1CCCN1 [Proline]
[1]
  Protective effect against insulin aggregation (in words): no protective effect was noted
[1]; [4]
  Optical Density ± 1 × SE: 0.665 ± 0.21

## N[C@@H](CO)C(=O)O [Serine]
[1]
  Protective effect against insulin aggregation (in words): no protective effect was noted
[1]; [4]
  Optical Density ± 1 × SE: 0.89 ± 0.02

## C[C@@H](O)[C@H](N)C(=O)O [Threonine]
[1]
  Protective effect against insulin aggregation (in words): no protective effect was noted
[1]; [4]
  Optical Density ± 1 × SE: 0.76 ± 0.02

## N[C@@H](Cc1c[nH]c2ccccc12)C(=O)O [Tryptophane]
[1]
  Protective effect against insulin aggregation (in words): no protective effect was noted
[1]; [4]
  Optical Density ± 1 × SE: 0.585 ± 0.200

## CC(C)[C@H](N)C(=O)O [Valine]
[1]
  Protective effect against insulin aggregation (in words): no protective effect was noted
[1]; [4]
  Optical Density ± 1 × SE: 0.64 ± 0.26

## OCc1ccccc1 [benzol alcohol]
[2]
  Effect in preventing the aggregation of insulin in solution over extended periods of time: do not appear to have any appreciable effect

## N[C@@H](CSSC[C@H](N)C(=O)O)C(=O)O [cystine]
[1]
  Protective effect against insulin aggregation (in words): no protective effect was noted

## O=C(O)CN(CCN(CC(=O)O)CC(=O)O)CC(=O)O [ethylene diamine tetraacetic acid]
[2]
  Effect in preventing the aggregation of insulin in solution over extended periods of time: do not appear to have any appreciable effect

## Cl [hydrochloric acid]
[1]
  Protective effect against insulin aggregation (in words): a comparable protective effect was not noted

## O=C([O-])O.[Na+] [sodium bicarbonate]
[2]
  Effect in preventing the aggregation of insulin in solution over extended periods of time: do not appear to have any appreciable effect

## [Cl-].[Na+] [sodium chloride]
[2]
  Effect in preventing the aggregation of insulin in solution over extended periods of time: do not appear to have any appreciable effect

## O=P(O)(O)O [sodium phosphate]
[2]
  Effect in preventing the aggregation of insulin in solution over extended periods of time: do not appear to have any appreciable effect
